BindingDB's records for doi:10.1016/S0960-894X(01)80753-8 (1993)
pKi: −log10 of the molar value.

target: Platelet-activating factor receptor (Oryctolagus cuniculus); assay: Inhibition of [3H]PAF binding to rabbit platelet membranes

Row | SMILES | pKi
1 | O=C(c1ccccc1)c1cccc(NC(=O)[C@@H]2OC(=O)N3[C@H](c4cccnc4)SC[C@@H]23)c1 [(1R,5S,7aR)-3-Oxo-5-pyridin-3-yl-dihydro-thiazolo[3,4-c]oxazole-1-carboxylic acid (3-benzoyl-phenyl)-amide] | 5.60
2 | O=C(c1ccccc1)c1cccc(NC(=O)[C@H]2OC(=O)N3[C@@H](c4cccnc4)SC[C@@H]23)c1 [(1S,5R,7aR)-3-Oxo-5-pyridin-3-yl-dihydro-thiazolo[3,4-c]oxazole-1-carboxylic acid (3-benzoyl-phenyl)-amide] | 7.62
3 | O=C(c1ccccc1)c1cccc(NC(=O)[C@@H]2OC(=O)N3[C@@H](c4cccnc4)SC[C@@H]23)c1 [(1R,5R,7aR)-3-Oxo-5-pyridin-3-yl-dihydro-thiazolo[3,4-c]oxazole-1-carboxylic acid (3-benzoyl-phenyl)-amide] | 5.92

Further lines, results first:

Row | pKi | SMILES
4 | 8.30 | O=C(c1ccccc1)c1cccc(NC(=O)[C@@H]2CSC(c3cccnc3)N2)c1 (stereo partly drawn) [(R)-2-Pyridin-3-yl-thiazolidine-4-carboxylic acid (3-benzoyl-phenyl)-amide]
5 | 6.82 | O=C(c1ccccc1)c1cccc(NC(=O)[C@H]2OC(=O)N3[C@H](c4cccnc4)SC[C@@H]23)c1 [(1S,5S,7aR)-3-Oxo-5-pyridin-3-yl-dihydro-thiazolo[3,4-c]oxazole-1-carboxylic acid (3-benzoyl-phenyl)-amide]
